Experimental data as given in patent publication US20230098254A1, “SCUTELLARIAE RADIX COMPOUNDS AND USE THEREOF FOR INHIBITING OXIDATIVE PHOSPHORYLATION PATHWAY OF MITOCHONDRIA” (priority 2020, published 2023).

Assays:
Format in all cases: cell-based
U-937 = test: Cell viability CellTiter-Glo, U-937; conditions: Homo sapiens; U-937, lymphoma
Description: (§1) Cell viability was measured by using the Promega CellTiter-Glo kit, the kit reflected cell viability by directly measuring intracellular ATP content. Different cancer cells were cultured in culture medium, and the 50% inhibitory concentration IC50 of the compound SJ2858 was measured by Promega CellTiter-Glo kit. The name source and culture condition of each tumor cell line were as follows:
Cell line U-937 (ATCC, No. CRL-1593.2) was cultured in RPMI1640 medium containing 10% fetal bovine serum (+P/S);

[1] = system: oxidative phosphorylation pathway of mitochondria; test: Cellular oxygen consumption (OCR), XFe metabolic analysis system; conditions: NCI-H82 cell; 73.2 μM; within half an hour; FIG. 1
Description: The oxygen required by cell was mainly consumed in the mitochondria respiratory chain, so the measurement of cellular oxygen consumption (OCR, oxygen consumption rate) could directly reflect the activity of the oxidative phosphorylation pathway of mitochondria. In this experiment, the XFe metabolic analysis system was used to measure the oxygen consumption of NCI-H82 cell in the presence or absence of Compound SJ2858 (baicalein) and Compound SJ2775 (baicalin).
Rotenone (abbreviated as RO, 0.5 μM) is a known inhibitor of mitochondria oxidative phosphorylation pathway complex I, Antimycin A (abbreviated as AA, 0.5 μM) is a known inhibitor of mitochondria oxidative phosphorylation pathway complex III. Compound SJ2858, 73.2 μM; Compound SJ2775, 118.2 μM.

SNU-449 = test: Cell viability CellTiter-Glo, SNU-449; conditions: Homo sapiens; SNU-449, liver cancer
Description: as §1
Cell line SNU-449 (ATCC, No. CRL-2234) was cultured in RPMI1640 medium containing 10% fetal bovine serum (+P/S);

ACHN = test: Cell viability CellTiter-Glo, ACHN; conditions: Homo sapiens, kidney cancer
Description: as §1
Cell line ACHN (ATCC, No. CRL-1611) was cultured in EMEM medium containing 10% fetal bovine serum (+P/S);

NCI-H82 cell = test: Cell viability, Promega CellTiter-Glo, NCI-H82 cell; conditions: Homo sapiens, NCI-H82; read-out: IC50 of cell viability inhibition
Description: Cell viability was detected by using the Promega CellTiter-Glo kit, the kit reflected cell viability by directly measuring intracellular ATP content. […] Daoy cell and NCI-H82 cell were cultured in DMEM containing 10% FBS (plus p/s).

WSU-DLCL2 = test: Cell viability CellTiter-Glo, WSU-DLCL2; conditions: Homo sapiens, WSUDLCL2; WSU-DLCL2, lymphoma
Description: as §1
Cell line WSU-DLCL2 (DSMZ, No. ACC-575) was cultured in RPMI1640 medium containing 10% fetal bovine serum (+P/S);

U-87 MG = test: Cell viability CellTiter-Glo, U-87 MG; conditions: Homo sapiens, brain cancer
Description: as §1
Cell line U-87MG (ATCC, No. HTB-14) was cultured in EMEM medium containing 10% fetal bovine serum (+P/S);

BT-549 = test: Cell viability CellTiter-Glo, BT-549; conditions: Homo sapiens; BT-549, breast cancer
Description: as §1
Cell line BT-549 (ATCC, No. HTB-122) was cultured in RPMI1640 medium containing 10% fetal bovine serum and 0.023 IU/ml human insulin (+P/S);

SNU-398 = test: Cell viability CellTiter-Glo, SNU-398; conditions: Homo sapiens; SNU-398, liver cancer
Description: as §1
Cell line SNU-398 (ATCC, No. CRL-2233) was cultured in RPMI1640 medium (+P/S); containing 10% fetal bovine serum (+P/S);

HH = test: Cell viability CellTiter-Glo, HH; conditions: Homo sapiens, lymphoma
Description: as §1
Cell line HH (ATCC, No. CRL-2105) was cultured in RPMI1640 medium containing 10% fetal bovine serum (+P/S);

C3A = test: Cell viability CellTiter-Glo, C3A; conditions: Homo sapiens, liver cancer
Description: as §1
Cell line C3A (ATCC, No. CRL-10741) was cultured in EMEM medium containing 10% fetal bovine serum (+P/S);

LS 180 = test: Cell viability CellTiter-Glo, LS 180; conditions: Homo sapiens, LS180; LS 180, intestinal cancer
Description: as §1, with “follows: […]” for “follows:”

CHL-1 = test: Cell viability CellTiter-Glo, CHL-1; conditions: Homo sapiens; CHL-1, melanoma
Description: as §1
Cell line CHL-1 (ATCC, No. CRL-9446) was cultured in DMEM medium containing 10% fetal bovine serum (+P/S);

NCI-H1048 = test: Cell viability CellTiter-Glo, NCI-H1048; conditions: Homo sapiens; NCI-H1048, lung cancer
Description: as §1
Cell line NCI-H1048 (ATCC, No. CRL-5853) was cultured in HITES medium containing 5% fetal bovine serum (+P/S);

Jurkat, Clone E6-1 = test: Cell viability CellTiter-Glo, Jurkat, Clone E6-1; conditions: Homo sapiens, Clone E6-1, leukemia
Description: as §1
Cell line Jurkat, Clone E6-1 (ATCC, No. TIB-152) was cultured in RPMI1640 medium containing 10% fetal bovine serum (+P/S);

HCC1806 = test: Cell viability CellTiter-Glo, HCC1806; conditions: Homo sapiens; HCC1806, breast cancer
Description: as §1
Cell line HCC1806 (ATCC, No. CRL-2335) was cultured in RPMI1640 medium containing 10% fetal bovine serum (+P/S);

OCI-LY-19 = test: Cell viability CellTiter-Glo, OCI-LY-19; conditions: Homo sapiens, OCI-LY19; OCI-LY-19, lymphoma
Description: as §1
Cell line OCI-LY-19 (DSMZ, code ACC-528) was cultured in 80-90% alpha-MEM medium containing 10-20% h.i. FBS (+P/S);

H9 = test: Cell viability CellTiter-Glo, H9; conditions: Homo sapiens; H9, lymphoma
Description: as §1
Cell line H9 (ATCC, No. HTB-176) was cultured in RPMI1640 medium containing 10% fetal bovine serum (+P/S);

GAK = test: Cell viability CellTiter-Glo, GAK; conditions: melanoma
Description: as §1
Cell line GAK (JCRB, No. JCRB0180) was cultured in Ham's F12 medium containing 20% fetal bovine serum (+P/S);

O=c1cc(-c2ccccc2)oc2cc(O)c(O)c(O)c12 [Compound SJ2858, baicalein]
IC50 (U-937): 39.2 µM | Inhibition of oxygen consumption (in words) [1]: significantly inhibit | IC50 (SNU-449): 26.9 µM | IC50 (ACHN): 17.7 µM | IC50 (NCI-H82 cell): 15.6 µM | IC50 (WSU-DLCL2): 21.3 µM | IC50 (U-87 MG): 19 µM | IC50 (BT-549): 18.1 µM | IC50 (SNU-398): 13 µM | IC50 (HH): 34 µM | IC50 (C3A): 27 µM | IC50 (LS 180): 17.4 µM | IC50 (CHL-1): 9.5 µM | IC50 (NCI-H1048): 15 µM | IC50 (Jurkat, Clone E6-1): 14.2 µM | IC50 (HCC1806): 25.7 µM | IC50 (OCI-LY-19): 52.3 µM | IC50 (H9): 19 µM | IC50 (GAK): 23.1 µM
